Molecular target: T1, EGFR (Homo sapiens, UniProt P00533)
T1 construct: endogenous in cells; host or cells: A431 cells (lysate, captured with SUMO1 anti-EGFR antibody)
Assay: Biochemical EGFR Assay
Design: concentration or dose not given beside the values
Conditions: protocol P.167
Outline: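 Readout is ABTS absorbance at 410 nm after anti-phosphotyrosine and HRP-antibody detection of EGFR autophosphorylation. The kinase was immunocaptured from A431 lysate, exposed 30 min to test compound diluted 1:10 in TBS, then phosphorylated for 5 min with ATP/MnCl2 before an EDTA stop.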

T1 sequence (P00533 25-1210): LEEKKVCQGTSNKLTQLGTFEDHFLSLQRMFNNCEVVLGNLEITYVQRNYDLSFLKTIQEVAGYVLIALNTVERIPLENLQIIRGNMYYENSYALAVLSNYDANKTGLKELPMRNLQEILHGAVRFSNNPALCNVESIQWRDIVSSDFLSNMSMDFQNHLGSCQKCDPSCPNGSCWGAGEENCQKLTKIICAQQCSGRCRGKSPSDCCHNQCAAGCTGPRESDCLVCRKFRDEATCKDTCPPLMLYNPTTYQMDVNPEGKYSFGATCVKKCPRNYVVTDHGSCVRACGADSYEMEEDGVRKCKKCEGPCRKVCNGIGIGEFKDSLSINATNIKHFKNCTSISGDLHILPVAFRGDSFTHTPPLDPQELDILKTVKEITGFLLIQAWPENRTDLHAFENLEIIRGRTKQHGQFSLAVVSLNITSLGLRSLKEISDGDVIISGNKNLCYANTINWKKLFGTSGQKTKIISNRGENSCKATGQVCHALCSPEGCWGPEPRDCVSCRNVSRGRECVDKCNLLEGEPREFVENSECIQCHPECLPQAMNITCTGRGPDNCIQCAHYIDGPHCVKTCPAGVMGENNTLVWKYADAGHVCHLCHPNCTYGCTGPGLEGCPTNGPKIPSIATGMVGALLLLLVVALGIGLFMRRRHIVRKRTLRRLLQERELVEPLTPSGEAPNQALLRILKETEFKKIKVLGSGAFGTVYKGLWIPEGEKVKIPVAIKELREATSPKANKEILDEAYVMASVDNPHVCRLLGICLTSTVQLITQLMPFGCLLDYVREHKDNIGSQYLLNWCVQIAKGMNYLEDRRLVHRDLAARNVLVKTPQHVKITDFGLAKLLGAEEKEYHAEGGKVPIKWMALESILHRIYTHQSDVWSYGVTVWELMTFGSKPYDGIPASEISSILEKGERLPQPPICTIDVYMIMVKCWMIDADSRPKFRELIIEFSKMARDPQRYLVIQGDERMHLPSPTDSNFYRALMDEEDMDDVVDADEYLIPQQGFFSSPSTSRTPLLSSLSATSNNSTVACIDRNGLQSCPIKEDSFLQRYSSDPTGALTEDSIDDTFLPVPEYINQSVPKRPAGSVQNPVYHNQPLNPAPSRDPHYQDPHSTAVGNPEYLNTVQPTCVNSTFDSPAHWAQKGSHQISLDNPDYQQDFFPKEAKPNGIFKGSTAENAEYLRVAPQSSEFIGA

Cc1ccc(C=C2C(=O)Nc3c(Br)cc(Br)c(C)c32)c(C)c1 [10737/H03]
Biochem EGFR % Inhibition (P.167): −22.6%

Cc1c(Br)cc(Br)c2c1C(=Cc1cc(F)ccc1F)C(=O)N2 [10737/H04]
Biochem EGFR % Inhibition (P.167): −17.6%

Cc1c(Br)cc(Br)c2c1C(=Cc1cccc(F)c1F)C(=O)N2 [10737/H05]
Biochem EGFR % Inhibition (P.167): −17.4%

COc1ccc(C=C2C(=O)Nc3c(Br)cc(Br)c(C)c32)cc1F [10737/H06]
Biochem EGFR % Inhibition (P.167): −31.0%

From patent US20020026053A1, “Novel 3-(substituted) -2- indolinones compounds and use thereof as inhibitors of protein kinase activity” (priority 1997, published 2002)
